Results: patent US20100286247A1, “Methods of Protection from Oxidative Stress” (Trustees of Boston University, priority 2005, published 2010)
{P} = phosphate

Columns and labels:
CAT mRNA = test: Northern blot analysis of antioxidant enzyme mRNA: CAT; format: cell-based, human; conditions: 100 μM pTT, 8-72 hours
Procedure: (§1) Cell culture followed previously published methods.^92 Primary human newborn dermal fibroblasts were cultured from neonatal circumcised foreskin specimens. The skin samples were treated overnight in a 0.25% trypsin solution at 4° C. to separate the epidermis from the dermis. The separated dermis was then cut into pieces and plated onto etched plastic tissue culture dishes. Primary culture medium consisted of DMEM supplemented with 10% bovine CS, 50 U/ml penicillin and 50 μg/ml streptomycin sulfate. […] Secondary culture medium consisted of DMEM supplemented with 10% CS.
Purified 5′-phosphorylated thymidine dinucleotides (pTT) (Midland Certified Reagents, Inc., Texas) purified by gel filtration and analyzed by mass spectroscopy, were obtained in lyophilized form. […] The stock solution was syringe filter-sterilized through a 0.2 μm pore filter and spectrophotometrically analyzed (absorbance at 260 and 280 nm) to determine the concentration, and frozen in aliquots at −20° C. […]
Cells were harvested in Trizol (Gibco BRL, Gaithersburg, Md.) and stored at −70° C. […] RNA solutions were measured by spectrophotometer readings at 260 nm and 280 nm to determine concentration and purity. […]
Northern and western films as well as stained membranes and pictures of ethidium bromide-stained gels were digitally scanned and analyzed by densitometry. […]

[1] = test system: neonatal foreskin fibroblasts; test: Hydrogen peroxide oxidative challenge, cell yields
Procedure: Early passage neonatal foreskin fibroblasts were passed to 100 mm dishes and pretreated 24 hours after passage with 100 μM pTT or diluent control. […] For each experiment fresh H2O2 solutions were made in DMEM. The H2O2 and control DMEM solutions were made and sterilized through 0.45 μm syringe filters immediately before treatment. After the one-hour treatment with H2O2 or diluent control, fresh medium was provided. Cells were harvested at later timepoints by a brief washing in 1× EDTA, followed by trypsinization at 37° C. Cell yields were determined using the Coulter Z cell counter.
The hydrogen peroxide oxidative challenge assay data were generated with the combined results of four separate experiments. The averages for each treatment condition and timepoint studied (8, 24, 48, and 72 hours) were used to calculate the percent of adherent H2O2 treated cells relative to diluent-treated cells. Changes in cell yield were determined as a function of time using General Linear Model with repeated measure analysis (SPSS Version 10).
After 72 hours of pretreatment with either 100 μM pTT or diluent control, the same number of cells were replated with fresh 10% CS DMEM lacking pTT. The following day they were exposed to a dose of 25 μM H2O2 or DMEM control for 1 hour, and cell yields were determined at 8, 24, 48 and 72 hours following the H2O2 treatment.
Newborn fibroblasts cells were plated in DMEM supplemented with 10% CS. Forty-eight hours after plating, cells were provided fresh medium. Twenty-four hours later, cells were provided fresh medium containing 40 μM of p[sequence] (abbreviated as TO, SEQ ID NO: 1) or diluent as a control. Seventy-two hours later, cells were harvested and replated in fresh medium lacking oligonucleotides. Twenty-four hours later, cells were provided fresh H2O2 (25 μM) or diluent for 1 hour and then provided fresh DMEM with 10% CS. Cell yield was then measured in TO-pre-treated cultures as well as control cultures.

[2] = test system: primary human newborn dermal fibroblasts; test: Determination of cell yields (Coulter counts); format: cell-based
Procedure: as §1
Equal numbers of fibroblasts were seeded into 32 mm culture dishes, and paired dishes were treated with pTT or diluent control as described above. At 24, 48 and 72 hours of treatment, the cells were harvested by trypsinization and counted in an automated cell counter (Coulter Z Series, Beckman Coulter, Inc., Fullerton, Calif.). The experiments were conducted in parallel with the MTS assay, using the same donor cells.
Cell yields of pTT-treated fibroblasts were compared to diluent using 2-way ANOVA and a total of four different experiments, to identify significant difference between treatment groups as a function of cell number and time. The parallel MTS assay also utilized the 2-way ANOVA, to compare changes in OD at 492 nm as a function of time and treatment modality. […]

[3] = test system: primary human newborn dermal fibroblasts; test: MTS viability assay; format: cell-based; conditions: 100 μM pTT
Excerpt: The CellTiter 96 Aqueous One Solution Cell Proliferation Assay, a version of the MTT assay, (Promega Corp., Madison, Wis.) is generally used as a eukaryotic cell viability and proliferation assay.^180 It has also been used to measure mitochondrial dysfunction,^181 because the assay measures the reduction of a tetrazolium compound [3-(4,5-dimethylthiazol-2-yl)-5-(-3-carboxymethoxyphenyl)-2-(4-sulfophenyl)-2H-tetrazolium] to formazan in viable mitochondria. The MTS assay utilizes a water-soluble form of the tetrazolium reagent in the original MIT assay. The formazan product is measured by absorbance at 492 nm.
Equal numbers of cells were seeded into 96-well tissue culture plates, and paired wells were treated once with pTT or diluent control as described above. At 24, 48 and 72 hours cell viability was assayed using the MTS assay and an ELIZA plate reader (Tecan Spectra II Model F039002, Austria) to measure absorbance at 492 nm. The experiments were conducted in parallel with cell yield Coulter counts, using the same donor cells.
Cell yields of pTT-treated fibroblasts were compared to diluent using 2-way ANOVA and a total of four different experiments, to identify significant difference between treatment groups as a function of cell number and time. The parallel MTS assay also utilized the 2-way ANOVA, to compare changes in OD at 492 nm as a function of time and treatment modality.

[4] = test system: S91 melanoma cells, cultured melanocytes, guinea pig skin; conditions: solutions of pTT; cited from earlier work
tumor formation = conditions: nude mice repeatedly exposed to solar simulated UV; cited from earlier work
total p53 protein = test: Western blot of total p53 (DO-1); format: cell-based, human; conditions: by 36-48 hours, sustained through 72 hours; 40 μM TO, 100 μM pTT
Procedure: Western blot analysis of proteins from cells treated and harvested in parallel with DCF time course studies was conducted as described above. Membranes were reacted with antibodies to total p53/DO-1 (1:1000 dilution, Oncogene Research Products, Cambridge, Mass.), anti-phoso-p53 (Ser-15) (1:1000 dilution, Cell Signaling Technology, Beverly, Mass.), and p21/Cip1/Waf1 (1:500 dilution, Transduction Laboratories, Lexington, Ky.), followed by appropriate secondary antibodies diluted 1:2000.

Substance | CAT mRNA level compared to diluent (CAT mRNA) | cell yields over time following exposure to H2O2 vs diluent pretreated ([1]; 100 μM pTT 72 hours pretreatment, 25 μM H2O2 1 hour, p=0.0008) | cell yields at 8 hours after H2O2 treatment vs diluent-pretreated ([1]; 100 μM pTT pretreatment, 25 μM H2O2) | higher relative cell yields (percentage of respective H2O2 controls) vs diluent-pretreated ([1]; 100 μM pTT pretreatment, 24 and 48 hours after 25 μM H2O2) | rate of fibroblast growth (cell yields) during treatment vs diluent ([2]; 100 μM pTT, 24-72 hours, 2-way ANOVA p=0.0079) | growth after replating in regular medium vs diluent-pretreated cells ([2]; 72 hours pretreatment with 100 μM pTT, no H2O2, p=0.0006) | cell viability (MTS formazan absorbance) vs diluent ([3]; 24-72 hours, 2-way ANOVA p=0.2588) | mitochondrial reductive activity per cell (MTS absorbance per Coulter-counted cell) ([3]; p=0.0093) | melanin production [4] | resistance to H2O2 measured by total cell yield ([1]; 40 μM TO 72 hours pretreatment, 25 μM H2O2 1 hour, up to 48 hours) | cells surviving oxidative challenge by H2O2 (cell yield as percent of own diluent control) ([1]; 40 μM TO pretreatment, 25 μM H2O2, non-treated control 52%) | incidence of tumor formation (tumor formation) | total p53 (DO-1) protein response, TO vs pTT (total p53 protein)
5′-phosphorylated thymidine dinucleotides [pTT] | remain unchanged | higher cell yields | lower cell yields than in the diluent-pretreated group | 10% | significantly decreased | significantly stimulated growth | no significant decrease in cell viability | significant increase in mitochondrial reductive activity per cell | enhanced melanin production | – | – | – | –
pGTTAGGGTTAG (5' {P}, sugars by position and backbone not given here) [TO] | – | – | – | – | – | – | – | – | – | increased resistance to H2O2 | 75% | decreased the incidence of tumor formation | greater than to pTT
